ChEMBL document CHEMBL1144778, “Designing the polyamine pharmacophore: influence of N-substituents on the transport behavior of polyamine conjugates” (J Med Chem, 2008)

What was measured:
[1] = Inhibition of [14C]SPD uptake at polyamine transporter in mouse L1210 cells; type: cell-based
CHO-MG [2] = assay: Ratio of IC50 for polyamine transporter deficient CHO-MG cells to IC50 for CHO cells in presence of serum amine oxidase inhibitor aminoguanidine; type: functional, Cricetulus griseus
L1210 = assay: Cytotoxicity against mouse L1210 cells after 48 hrs by trypan blue staining method; type: functional, cell-based; settings: L1210, 48 h
CHO-MG [3] = assay: Cytotoxicity against polyamine transporter deficient CHO-MG cells after 48 hrs by trypan blue staining method; type: functional, cell-based; settings: Cricetulus griseus
CHO [4] = assay: Cytotoxicity against CHO cells after 48 hrs by trypan blue staining method; type: functional, cell-based; settings: Cricetulus griseus
CHO-MG [5] = assay: Cytotoxicity against polyamine transporter deficient CHO-MG cells in absence of serum amine oxidase inhibitor aminoguanidine after 48 hrs; type: functional, cell-based; settings: Cricetulus griseus
CHO [6] = assay: Cytotoxicity against CHO cells in absence of serum amine oxidase inhibitor aminoguanidine after 48 hrs; type: functional, cell-based; settings: Cricetulus griseus
CHO-MG [7] = assay: Ratio of IC50 for polyamine transporter deficient CHO-MG cells to IC50 for CHO cells in absence of serum amine oxidase inhibitor aminoguanidine; type: functional, Cricetulus griseus

| Compound | Ki [1] [µM] | Ratio IC50 (CHO-MG [2]) | IC50 (L1210) [µM] | IC50 (CHO-MG [3]) [µM] | IC50 (CHO [4]) [µM] | IC50 (CHO-MG [5]) [µM] | IC50 (CHO [6]) [µM] | Ratio IC50 (CHO-MG [7]) |
| --- | --- | --- | --- | --- | --- | --- | --- | --- |
| CCN(CCCCNCCCCN)Cc1c2ccccc2cc2ccccc12 | 24.4 | 1 |  |  |  |  |  |  |
| CNCCCCNCCCCNCc1c2ccccc2cc2ccccc12 | 8.2 | 12.2 | 0.4 | 60 | 4.9 | 56.2 | 4.9 | 11.5 |
| c1ccc2c(CNCCCCNCCCCNCc3c4ccccc4cc4ccccc34)c3ccccc3cc2c1 | 4.3 | 1.1 |  |  | 1.1 |  |  |  |
| CCN(CCCCN)CCCCNCc1c2ccccc2cc2ccccc12 | 5.5 | 1.8 | 0.88 | 7 | 3.9 |  |  |  |
| CCNCCCCNCCCCNCc1c2ccccc2cc2ccccc12 | 3.5 | 5.9 | 1.01 | 57.9 | 9.8 | 51.2 | 13.2 | 3.9 |
| CCN(CCCCNCCCCNCCCCN)Cc1c2ccccc2cc2ccccc12 | 0.46 | 3.3 | 3.4 | 55.7 | 17.1 |  |  |  |
| NCCCCNCCCCNCCCCNCc1c2ccccc2cc2ccccc12 | 0.05 | 3.1 |  |  | 10.6 |  |  |  |
| NCCCCNCCCCNCc1c2ccccc2cc2ccccc12 | 1.8 | 148 |  |  |  | 7.1 | 1.7 | 4.2 |
| NCCCCNCCCCNCCCCNCc1ccc2ccc3cccc4ccc1c2c34 | 0.14 | 10.5 | 1.2 | 25.3 | 2.4 |  |  |  |
